Patent US6767705B2, “Reagents and methods for identifying and modulating expression of genes regulated by retinoids” (The Board of Trustees of the University of Illinois, priority 2000, dated 2004)

Assays:
p21 = details: retinoic acid-induced growth inhibition in MCF-7 cells; cited from earlier work
MCF-7 cells [1] = assay: Clonogenic assay (colony formation / plating efficiency) of MCF-7 cells after RA treatment; type: cell-based, human
Procedure: FIGS. 1A and 1B are graphs showing the effects of retinoic acid (RA) on colony formation by MCF-7 cells. In each assay, 1.5×10^5 cells were plated per P100, in the absence or in the presence of RA. For clonogenic assays, cells were trypsinized after treatment, and 2,500 cells were plated per P100 and grown in drug-free media. […] Each point represents the mean and standard deviation for triplicate assays.
Clonogenic assays were performed to analyze the differences in proliferative capacity in MCF-7 cells after treatment with 100 nM RA for varying times. Cells were exposed to 100 nM RA for 1-7 days and tested for their capacity to form colonies after treatment at each time point. […] The decrease was initially rapid (from 100% to 40% plating efficiency after 2 days incubation with RA) and decreased more slowly to a final plating efficiency of about 10% at day 7.

MCF-7 cells [2] = assay: RT-PCR analysis of expression of retinoid-inducible genes in MCF-7 cells; type: cell-based, human
Procedure: FIGS. 2A through 2C show the results of RT-PCR analysis of changes in the expression of retinoid-inducible genes as described in Example 1. The identity of each gene is followed by the NCBI Accession Number (in parentheses). […] The designations “R5” and “R8” correspond to days 5 and 8 after release from 5-day RA treatment, respectively.
RT-PCR analysis was carried out essentially as described (Noonan et al., 1990, Proc. Natl. Acad. Sci. USA 87: 7160-7164), using β-actin as an internal normalization standard.

[3] = tested on: MCF-7 human breast carcinoma cells; details: cited from earlier work
MCF-7 cells [4] = assay: cDNA microarray hybridization (Human UniGEM V) of RA-treated vs untreated MCF-7 cells; type: cell-based; details: 100 nM RA, 5 days
Procedure: To study gene expression changes, poly(A)+ RNA was isolated from untreated MCF-7 cells and from cells treated for 5 days with 100 nM RA. cDNA was prepared from these RNA populations and the cDNA hybridized with a cDNA microarray (Human UniGEM V cDNA microarray, Incyte Genomics, St. Louis, Mo.) that contains >7,000 cDNAs of different human genes and ESTs. cDNA probe synthesis, hybridization with the microarray and signal analyses were conducted by IncyteGenomics as a commercial service.

MCF-7 cells [5] = assay: Immunocytochemical and immunoblotting analysis of IGFBP-3, HIF2α/EPAS-1 and EPLIN proteins in MCF-7 cells; type: cell-based, human; details: 100 nM RA for 5 days, MCF-7 cells (FIG. 3A, 3B)
Procedure: FIG. 3A is a photomicrograph and FIG. 3B is a photograph of an immunoblot showing induction of IGFBP-3, HIF2α/EPAS-1 and EPLIN proteins in RA-treated cells.
Induction of three genes in this group was tested and confirmed at the protein level, by immunocytochemical assays, shown in FIG. 3A, using rabbit polyclonal antibody against EPLIN (a gift of Dr. David Chang, UCLA), and goat polyclonal antibodies against IGFBP-3 and EPAS-1/HIF-2α (Santa Cruz Biotechnology, Inc., Santa Cruz, Calif.) and standard techniques. Antibody staining was detected using Vectastain kit (Vector Labs, Burlingame, Calif.) according to the manufacturer's instructions.
The EPLIN gene encodes two protein isoforms. EPLINα and EPLINβ, with the larger (β) isoform showing a stronger growth-inhibitory effect. The observed induction of EPLIN gene expression was confirmed by immunocytochemical and immunoblotting assays (results shown in FIGS. 3A and 3B). These assays were performed using rabbit polyclonal antibody against EPLIN (a gift of Dr. David Chang, UCLA) and were carried out by standard techniques. Antibody staining was detected using Vectastain kit (Vector Labs) for immunocytochemistry and horseradish peroxidase-conjugated goat anti-rabbit IgG (Santa Cruz) for immunobloting.

[6] = tested on: xenografts of MCF-10T neo mammary epithelial cells; details: xenografts in vivo after treatment with fenretinide; cited from earlier work
[7] = 100 nM RA, MCF-7 cells (FIG. 2A)

| Structure (SMILES) | induction of p21 (p21) | plating efficiency, normalized to untreated control (MCF-7 cells [1]; 100 nM RA, after 2 days incubation, MCF-7 cells (FIG. 1A)) | final plating efficiency, normalized to untreated control (MCF-7 cells [1]; 100 nM RA, day 7, MCF-7 cells (FIG. 1A)) | plating efficiency at varying concentrations of RA (MCF-7 cells [1]; 40 hr treatment, indicated doses, lowest 10 nM, MCF-7 cells (FIG. 1B)) | time course of changes in RNA levels of the 13 genes (MCF-7 cells [2]; [7]) | time to maximum expression of RNF (MCF-7 cells [2]; [7]) | RA dose-dependence of gene expression of the 13 genes (MCF-7 cells [2]; 40 hr treatment, lowest dose 10 nM, MCF-7 cells (FIG. 2B)) | induction of 13 upregulated genes by RT-PCR (MCF-7 cells [2]; RA-treated MCF-7 cells, printed as '5-10 fold or more' (FIGS. 2A, 2B)) | continuous exposure required for the growth arrest effect to become apparent ([3]; low dose RA (between 10-100 nM), MCF-7 cells) | growth arrest and cell death in MCF-7 cells ([3]; relatively low doses of RA (between 10-100 nM)) | decrease in balanced differential expression, 20 genes (MCF-7 cells [4]) | increase in balanced differential expression, 27 genes (MCF-7 cells [4]) | maximum decrease in relative hybridization intensity of any gene in the microarray (MCF-7 cells [4]) | maximum increase in relative hybridization intensity of any gene in the microarray (MCF-7 cells [4]) | expression of IGFBP-3, EPAS-1/HIF2α and EPLIN proteins (MCF-7 cells [5]) | induction of the 13 genes (MCF-7 cells [2]; 1 μM fenretinide, MCF-7 cells (FIG. 2C)) | induction of senescence-associated marker SA-β-gal [6] |
| --- | --- | --- | --- | --- | --- | --- | --- | --- | --- | --- | --- | --- | --- | --- | --- | --- | --- |
| CC1=C(/C=C/C(C)=C/C=C/C(C)=C/C(=O)O)C(C)(C)CCC1 [RA, all-trans retinoic acid] | does not induce p21 | 40% | about 10% | dose-dependent reduction in plating efficiency at all tested doses (as low as 10 nM) | many of them increased their expression between days 1 and 4 of RA treatment | maximum expression after just one day of treatment | almost all of these genes were induced even by the lowest (10 nM) dose | 5-10 fold | 4 to 6 days | induce irreversible growth arrest in MCF-7 cells, while producing only a minor reduction in cell numbers caused by cell death | 1.7-3.0 fold | 1.4-2.5 fold | ≤ 3 fold | ≤ 2.5 fold | increased expression of the corresponding proteins |  |  |
| CC1=C(/C=C/C(C)=C/C=C/C(C)=C/C(=O)Nc2ccc(O)cc2)C(C)(C)CCC1 [fenretinide, 4-hydroxyphenylretinamide] |  |  |  |  |  |  |  |  |  |  |  |  |  |  |  | All 13 genes were also induced | Induction of SA-β-gal was also observed |
